Laboratory results from patent publication US20230147053A1, “FUSED N-HETEROCYCLIC COMPOUNDS AND METHODS OF USE THEREOF” (Araxes Pharma LLC, priority 2017, published 2023).

target: T1, KRAS G12C 1-169, his-tagged protein, GDP-loaded (Homo sapiens, UniProt P01116, G12C); test: Biochemical assay: covalent binding (modification) of KRAS G12C measured by mass spectrometry; settings: covalent binding to KRAS G12C after a thirty minute incubation period
T1 construct: KRAS G12C 1-169, his-tagged protein, GDP-loaded
Protocol: Test compounds were prepared as 10 mM stock solutions in DMSO (Fisher cat #BP-231-100). KRAS G12C 1-169, his-tagged protein, GDP-loaded was diluted to 2 μM or 0.5 μM in buffer (20 mM Hepes, 150 mM NaCl, 1 mM MgCl2). Compounds were tested for activity as follows:
Compounds were diluted to 50× final test concentration in DMSO in 96-well storage plates. Compound stock solutions were vortexed before use and observed carefully for any sign of precipitation. Dilutions were as follow: • For 100 μM final compound concentration, compounds were diluted to 5000 μM (5 μL 10 mM compound stock+5 μL DMSO and mixed well by pipetting. • For 30 μM final compound concentration, compounds were diluted to 1500 μM (3 μL 10 mM compound stock+17 μL DMSO) and mixed well by pipetting. • For 10 μM final compound concentration, compounds were diluted to 500 μM (2 μL 10 mM compound stock+38 μL DMSO) and mixed well by pipetting. 49 μL of the stock protein solution was added to each well of a 96-well PCR plate (Fisher cat #1423027). 1 μl of the diluted 50× compounds were added to appropriate wells in the PCR plate using 12-channel pipettor. Reactions were mixed carefully and thoroughly by pipetting up/down with a 200 μL multi-channel pipettor. The plate was sealed well with aluminum plate seal, and stored in drawer at room temperature for 10 minutes, 30 minutes, 2 hours or 24 hours. 5 μL of 2% formic acid (Fisher cat #A117) in de-ionized H2O was then added to each well followed by mixing with a pipette. The plate was then resealed with aluminum seal and stored on dry ice until analyzed as described below.
The above described assays were analyzed by mass spectrometry according to one of the following two procedures:
The MS instrument is set to positive polarity, 2 GHz resolution, and low mass (1700) mode and allowed to equilibrate for 30 minutes. The instrument is then calibrated, switched to acquisition mode and the appropriate method loaded.
After another 30 minute equilibration time, a blank batch (i.e., buffer) is run to ensure equipment is operating properly. The samples are thawed at 37° C. for 10 minutes, briefly centrifuged, and transfer to the bench top. Wells A1 and H12 are spiked with 1 μL 500 μM internal standard peptide, and the plates centrifuged at 2000×g for 5 minutes. The method is then run and masses of each individual well recorded.
The masses (for which integration data is desired) for each well are pasted into the platemap and exported from the analysis. Masses for the internal standards are exported as well. The data at 50 ppm is extracted for the +19 charge state, and identity of well A1 is assigned using the internal standard spike and integrated. Peak data is exported as a TOF list and the above steps are repeated individually, for the +20, 21, 22, 23, 24, and 25 charge states.
The masses and peak intensities of KRAS G12C protein species were measured using a Dionex RSLCnano system (Thermo Scientific) connected to a Q Exactive Plus mass spectrometer (Thermo Scientific).
[…] of sample was each loaded onto a Aeris™ 3.6 μm WIDEPORE C4 200 A, LC Column 50×2.1 mm column maintained at 40° C. at a flow rate of 600 μL/min with […] (0.1% formic acid in acetonitrile). The liquid chromatography conditions were 20% solvent B for 1 minute, 20% to 60% solvent B for 1.5 minutes, 60% to 90% solvent for 0.5 minute, 90% solvent B for 0.2 minute, 90% to 20% solvent B for 0.2 minute, and then equilibrated for 1.6 minute before the following sample injection. The flow rate was maintained at 600 μL/min throughout the sample analysis.
The mass spectrometer was operated in profile mode at a resolution of 17500, 5 microscans, using 50 msec max injection time and an AGC target of 1×10^6, and a full mass range from 800-1850 m/z was recorded. The HCD trapping gas was optimized for maximum sensitivity for intact proteins. […]

SMILES | Binding %
C=CC(=O)N1CC(c2ccc3c(Nc4cc(O)cc5ccccc45)ncnc3c2)C1 [Compound 36, 1-(3-(4-((3-hydroxynaphthalen-1-yl)amino)quinazolin-7-yl)azetidin-1-yl)prop-2-en-1-one] | + (+ indicates binding activity up to 5%)
C=CC(=O)N1CC(c2ccc3c(Nc4c(C)ccc5[nH]ncc45)ncnc3c2)C1 [Compound 38, 1-(3-(4-((5-methyl-1H-indazol-4-yl)amino)quinazolin-7-yl)azetidin-1-yl)prop-2-en-1-one] | + (+ indicates binding activity up to 5%)
C=CC(=O)N1CC(c2ccc3c(c2)NC(=O)N(c2c(C)ccc4[nH]ncc24)C3)C1 [Compound 25, 7-(1-acryloylazetidin-3-yl)-3-(5-methyl-1H-indazol-4-yl)-3,4-dihydroquinazolin-2(1H)-one] | ++ (++ indicates binding activity from 5% to 50%)
C=CC(=O)N1CC(c2ccc3cn(-c4c(C)ccc5[nH]ncc45)c(=O)cc3c2)C1 [Compound 23, 6-(1-acryloylazetidin-3-yl)-2-(5-methyl-1H-indazol-4-yl)isoquinolin-3(2H)-one] | + (+ indicates binding activity up to 5%)
C=CC(=O)N1CC(NC(=O)c2ccc3c(-c4cc(O)cc5ccccc45)ccnc3c2)C1 [Compound 39, N-(1-acryloylazetidin-3-yl)-4-(3-hydroxynaphthalen-1-yl)quinoline-7-carboxamide] | ++ (++ indicates binding activity from 5% to 50%)
C=CC(=O)N1CC(c2ccc3c(=O)n(-c4c(C)ccc5[nH]ncc45)ccc3c2)C1 [Compound 19, 6-(1-acryloylazetidin-3-yl)-2-(5-methyl-1H-indazol-4-yl)isoquinolin-1(2H)-one] | + (+ indicates binding activity up to 5%)
C=CC(=O)N1CC(c2ccc3c(c2)CCCN(c2cccc4[nH]ncc24)C3)C1 [Compound 5, 1-(3-(2-(1H-indazol-4-yl)-2,3,4,5-tetrahydro-1H-benzo[c]azepin-7-yl)azetidin-1-yl)prop-2-en-1-one] | + (+ indicates binding activity up to 5%)
C=CC(=O)N1CCC(c2ccc3c(c2)CCN(c2c(C)ccc4[nH]ncc24)C3=O)C1 (centres unmarked) [Compound 32, 6-(1-acryloylpyrrolidin-3-yl)-2-(5-methyl-1H-indazol-4-yl)-3,4-dihydroisoquinolin-1(2H)-one] | + (+ indicates binding activity up to 5%)
C=CC(=O)N1CC(c2ccc3[nH]c(-c4cc(O)cc5ccccc45)cc3c2)C1 [Compound 14, 1-(3-(2-(3-hydroxynaphthalen-1-yl)-1H-indol-5-yl)azetidin-1-yl)prop-2-en-1-one] | +++ (+++ indicates binding activity greater than 50%)
C=CC(=O)N1CC(c2ccc3cc(-c4cc(O)cc5ccccc45)ncc3c2)C1 [Compound 26, 1-(3-(3-(3-hydroxynaphthalen-1-yl)isoquinolin-7-yl)azetidin-1-yl)prop-2-en-1-one] | ++ (++ indicates binding activity from 5% to 50%)
C=CC(=O)N1CC(c2ccc3c(c2)NC(=O)N(c2cc(O)cc4ccccc24)C3)C1 [Compound 24, 7-(1-acryloylazetidin-3-yl)-3-(3-hydroxynaphthalen-1-yl)-3,4-dihydroquinazolin-2(1H)-one] | +++ (+++ indicates binding activity greater than 50%)
C=CC(=O)N1CC(c2ccc3c(c2)CN(c2cc(O)cc4ccccc24)C3)C1 [Compound 6, 1-(3-(2-(3-hydroxynaphthalen-1-yl)isoindolin-5-yl)azetidin-1-yl)prop-2-en-1-one] | +++ (+++ indicates binding activity greater than 50%)
C=CC(=O)N1CC(c2ccc3c(c2)CN(c2cc(O)cc4ccccc24)C3=O)C1 [Compound 8, 5-(1-acryloylazetidin-3-yl)-2-(3-hydroxynaphthalen-1-yl)isoindolin-1-one] | +++ (+++ indicates binding activity greater than 50%)
C=CC(=O)N1CC(c2ccc3c(c2)cc(-c2cc(O)cc4ccccc24)n3CC(N)=O)C1 [Compound 40, 2-(5-(1-acryloylazetidin-3-yl)-2-(3-hydroxynaphthalen-1-yl)-1H-indol-1-yl)acetamide] | ++ (++ indicates binding activity from 5% to 50%)
C=CC(=O)N1CC(c2ccc3cc(-c4cc(O)cc5ccccc45)n(CC(N)=O)c3c2)C1 [Compound 34, 2-(6-(1-acryloylazetidin-3-yl)-2-(3-hydroxynaphthalen-1-yl)-1H-indol-1-yl)acetamide] | + (+ indicates binding activity up to 5%)
C=CC(=O)N1CC(c2ccc3cc(-c4c(C)ccc5[nH]ncc45)[nH]c3c2)C1 [Compound 35, 1-(3-(2-(5-methyl-1H-indazol-4-yl)-1H-indol-6-yl)azetidin-1-yl)prop-2-en-1-one] | + (+ indicates binding activity up to 5%)
C=CC(=O)N1CC(Nc2cccc3c(-c4cc(O)cc5ccccc45)ccnc23)C1 [Compound 37, 1-(3-((4-(3-hydroxynaphthalen-1-yl)quinolin-8-yl)amino)azetidin-1-yl)prop-2-en-1-one] | +++ (+++ indicates binding activity greater than 50%)
C=CC(=O)N1CC(c2ccc3c(c2)C(=O)N(c2c(C)ccc4[nH]ncc24)C3)C1 [Compound 11, 6-(1-acryloylazetidin-3-yl)-2-(5-methyl-1H-indazol-4-yl)isoindolin-1-one] | + (+ indicates binding activity up to 5%)
C=CC(=O)N1CC(c2ccc3cc(-c4cc(O)cc5ccccc45)[nH]c3c2)C1 [Compound 33, 1-(3-(2-(3-hydroxynaphthalen-1-yl)-1H-indol-6-yl)azetidin-1-yl)prop-2-en-1-one] | ++ (++ indicates binding activity from 5% to 50%)
C=CC(=O)N1CC(c2ccc3c(=O)n(-c4cc(O)cc5ccccc45)ccc3c2)C1 [Compound 18, 6-(1-acryloylazetidin-3-yl)-2-(3-hydroxynaphthalen-1-yl)isoquinolin-1(2H)-one] | +++ (+++ indicates binding activity greater than 50%)
C=CC(=O)N1CC(c2ccc3c(c2)CN(c2c(C)ccc4[nH]ncc24)C3=O)C1 [Compound 9, 5-(1-acryloylazetidin-3-yl)-2-(5-methyl-1H-indazol-4-yl)isoindolin-1-one] | + (+ indicates binding activity up to 5%)
C=CC(=O)N1CC(c2ccc3c(c2)C(=O)N(c2cc(O)cc4ccccc24)C3)C1 [Compound 10, 6-(1-acryloylazetidin-3-yl)-2-(3-hydroxynaphthalen-1-yl)isoindolin-1-one] | ++ (++ indicates binding activity from 5% to 50%)
C=CC(=O)N1CC(c2ccc3cn(-c4cc(O)cc5ccccc45)c(=O)cc3c2)C1 [Compound 22, 6-(1-acryloylazetidin-3-yl)-2-(3-hydroxynaphthalen-1-yl)isoquinolin-3(2H)-one] | + (+ indicates binding activity up to 5%)
